Literature values as cited in PMC9620260 (Journal of Medicinal Chemistry, 2022).
Read-outs that look alike come from different tables or passages of the source.

Key:
[1] = molecular target: T. cruzi trans-sialidase (TcTS)
[2] = test system: T. cruzi
[3] = test system: SpNanA
[4] = test system: V. cholerae sialidase
[5] = test system: C. perfringens sialidase (CpNanI)
[6] = test system: bacterial sialidase
[7] = test system: Neu1; settings: selective for Neu1 over the other isoenzymes
[8] = molecular target: influenza viral NA
[9] = test system: sialidases
[10] = test system: sialyltransferases
[11] = test system: S. pneumoniae sialidases
[12] = not given; remark: listed apart in the source

CC(=O)N[C@H]1[C@H]([C@H](O)[C@H](O)CO)O[C@@](Oc2ccc([N+](=O)[O-])cc2C(F)F)(C(=O)O)C[C@@H]1O [2-difluoromethyl-4-nitrophenyl glycoside of αNeu5Ac]
IC50 ([1]; irreversible inhibitor of trans-sialidase): 600 µM
T. cruzi infection of mammalian cells [2]: prevents T. cruzi infection of mammalian cells

O=C(O)c1cc(O)c2c(c1)C(=O)c1cc(O)c(Cl)c(O)c1C2=O [6-chloro-9,10-dihydro-4,5,7-trihydroxy-9,10-dioxo-2-anthracenecarboxylic acid]
IC50 ([1]; specific TcTS inhibitor): 0.58 µM

COc1ccc(C=CC(=O)C=C(O)C=Cc2ccc(O)c(O)c2)cc1O [7-(3,4-dihydroxyphenyl)-5-hydroxy-1-(3-hydroxy-4-methoxyphenyl) hepta-1,4,6-trien-3-one]
inhibition of S. pneumoniae NanA [3]: inhibit
inhibition of V. cholerae sialidase [4]: inhibit
inhibition of C. perfringens sialidase [5]: inhibit

CC(=O)NC1C(O)C(F)C(F)(C(=O)O)OC1C(O)C(O)CN=[N+]=[N-] (stereo not shown) [9-azido-modified 2,3-diF-Neu5Ac]
inhibitory activity against bacterial sialidases ([6]; effect of modification of 2,3-difluoro-Sia): increased inhibitory activity

CCCCC(=O)NC[C@@H](O)[C@@H](O)[C@@H]1OC(C(=O)O)=C[C@H](O)[C@H]1NC(C)=O [C-9 Pentylamido derivative of DANA]
IC50 against Neu1 [7]: micromolar

CC(=O)N[C@H]1[C@H]([C@H](O)[C@H](O)CO)OC(C(=O)O)=C[C@@H]1O [DANA, 2-deoxy-2,3-dehydro-N-acetylneuraminic acid]
Ki values ([8]; influenza viral neuraminidases): micromolar range
IC50 against TcTS [1]: several hundred

COc1cc(C)c(C(=O)Oc2cc(C)c(C(=O)O)c(O)c2)c(O)c1 [Evernic acid]
inhibition against bacterial sialidase [6]: dose-dependent inhibition

CC(=O)N[C@H]1[C@H]([C@H](O)[C@H](O)CO)OC(O)(C(=O)O)C[C@@H]1O (stereo partly shown) [Neu5Ac, N-acetylneuraminic acid]
inhibition of sialidases [9]: weak inhibitor

COC(=O)C1(OC(C)=O)OC([C@H](OC(C)=O)[C@@H](COC(C)=O)OC(C)=O)C(NC(C)=O)C(OC(C)=O)C1F (stereo partly shown) [P-3Fax-Neu5Ac]
nephrotoxicity: well-known nephrotoxicity
inhibition of the sialyltransferases [10]: cell-permeable specific inhibitor

COc1cc2oc(-c3ccc(O)cc3O)c(CC=C(C)C)c(=O)c2c(O)c1/C=C/C(C)C [artocarpin]
inhibitory activity against influenza sialidase [8]: inhibitory activity
inhibitory activity against S. pneumoniae sialidases [11]: inhibitory activity

O=C(CCc1ccccc1)C[C@@H]1C[C@@H](c2ccccc2)c2c(cc(/C=C/c3ccccc3)oc2=O)O1 [katsumadain A]
inhibitory activity against influenza sialidase [8]: inhibitory activity
inhibitory activity against S. pneumoniae sialidases [11]: inhibitory activity

CCOC(=O)C1=C[C@@H](OC(CC)CC)[C@H](NC(C)=O)[C@@H](N)C1 [oseltamivir]
side effects [12]: neuropsychiatric side effects
